Source: patent publication US8536202B2, “Triazole-substituted anthranilamides as pesticides” (Bayer Cropscience AG, priority 2010, dated 2013)
Where two headings read alike, the source gives them in different places.

Key:
[1] = log P determination by HPLC on reversed-phase columns (EEC Directive 79/831 Annex V.A8); assay type: physicochemical; details: pH 2.7
How it was run: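 Calibration used unbranched alkan-2-ones of 3 to 16 carbons with known log P, values interpolated linearly from retention times between neighbouring standards. Acidic-range LC-MS run at pH 2.7, eluents aqueous and acetonitrile formic acid 0.1%, linear gradient 10% to 95% acetonitrile.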

[2] = test system: larvae of the mustard beetle (Phaedon cochleariae); assay: Phaedon test (PHAECO spray treatment); assay type: in vivo; details: 168 h, read-out: activity in %
How it was run: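 Mortality of mustard beetle larvae, expressed as percent killed (100% all, 0% none), assessed 7 days after spraying. Spray liquor made from compound in acetone plus dimethylformamide with alkylaryl polyglycol ether, diluted in emulsifier-containing water to the desired concentration.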

[3] = test system: caterpillars of the armyworm (Spodoptera frugiperda); assay: Spodoptera frugiperda test (SPODFR spray treatment); assay type: in vivo; details: 168 h, read-out: activity in %
How it was run: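 Percent caterpillar mortality read 7 days after infestation (0% none killed, 100% all killed). Treatment was a spray of the acetone/DMF/emulsifier formulation, water-diluted to test concentration, onto Zea mays leaf discs, allowed to dry before larvae were added.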

[4] = HPLC on reversed-phase columns (C 18), EEC Directive 79/831 Annex V.A8, read-out: logP

Compound	chromatographic logP [1, 4]	pest or weed control at 100 g/ha [2] [%]	pest or weed control at 100 g/ha [3] [%]	chromatographic logP [1]	pest or weed control at 100 g/ha ([2]; 100 g/ha, after 7 days) [%]	pest or weed control at 100 g/ha ([3]; 100 g/ha, after 7 days) [%]
Cc1cc(I)cc(C(=O)NCC2CC2)c1NC(=O)c1cc(Cn2cc(C(F)(F)C(F)(F)C(F)(F)F)nn2)nn1-c1ncccc1Cl [Example 333]	4.13	100	100			
Cc1cc(I)cc(C(=O)NC(C)(C)C)c1NC(=O)c1cc(Cn2cc(C(F)(F)C(F)(F)C(F)(F)F)nn2)nn1-c1ncccc1Cl [Example 334]	4.42	100	100			
CCNC(=O)c1cc(I)cc(C)c1NC(=O)c1cc(Cn2cc(C(F)(F)C(F)(F)C(F)(F)F)nn2)nn1-c1ncccc1Cl [Example 335]	3.83	100	100			
Cc1cc(I)cc(C(=O)NC(C)C2CC2)c1NC(=O)c1cc(Cn2cc(C(F)(F)C(F)(F)C(F)(F)F)nn2)nn1-c1ncccc1Cl (stereo not drawn) [Example 336]	4.36	100	100			
Cc1cc(I)cc(C(=O)NCC2CC2)c1NC(=O)c1cc(Cn2ncc(C(F)(F)C(F)(F)F)n2)nn1-c1ncccc1Cl [Example 345]				4.22	100	100
Cc1cc(I)cc(C(=O)NC(C)C)c1NC(=O)c1cc(Cn2ncc(C(F)(F)C(F)(F)F)n2)nn1-c1ncccc1Cl [Example 346]				4.15	100	100
Cc1cc(I)cc(C(=O)NC2CC2)c1NC(=O)c1cc(Cn2ncc(C(F)(F)C(F)(F)F)n2)nn1-c1ncccc1Cl [Example 347]				3.86	100	100
Cc1cc(Cl)cc(C(=O)NC(C)C2CC2)c1NC(=O)c1cc(Cn2ncc(C(F)(F)C(F)(F)F)n2)nn1-c1ncccc1Cl (stereo not drawn) [Example 351]				4.21	100	100
Cc1cc(I)cc(C(N)=O)c1NC(=O)c1cc(Cn2ncc(C(F)(F)C(F)(F)F)n2)nn1-c1ncccc1Cl [Example 354]				3.33	100	100
CCNC(=O)c1cc(I)cc(C)c1NC(=O)c1cc(Cn2ncc(C(F)(F)C(F)(F)F)n2)nn1-c1ncccc1Cl [Example 355]				3.89	100	100
Cc1cc(I)cc(C(=O)NC(C)C2CC2)c1NC(=O)c1cc(Cn2ncc(C(F)(F)C(F)(F)F)n2)nn1-c1ncccc1Cl (stereo not drawn) [Example 357]				4.45	100	100
Cc1cc(Cl)cc(C(=O)NCC2CC2)c1NC(=O)c1cc(Cn2ncc(C(F)(F)C(F)(F)C(F)(F)F)n2)nn1-c1ncccc1Cl [Example 366]	4.34	100	100			
CCNC(=O)c1cc(Cl)cc(C)c1NC(=O)c1cc(Cn2ncc(C(F)(F)C(F)(F)C(F)(F)F)n2)nn1-c1ncccc1Cl [Example 367]	4.03	100	100			
CCNC(=O)c1cc(I)cc(C)c1NC(=O)c1cc(Cn2ncc(C(F)(F)C(F)(F)C(F)(F)F)n2)nn1-c1ncccc1Cl [Example 369]	4.28	100	100			
Cc1cc(Cl)cc(C(=O)NC2CC2)c1NC(=O)c1cc(Cn2ncc(C(F)(F)C(F)(F)C(F)(F)F)n2)nn1-c1ncccc1Cl [Example 370]	3.99	100	100			
Cc1cc(I)cc(C(=O)NC(C)C)c1NC(=O)c1cc(Cn2ncc(C(F)(F)C(F)(F)C(F)(F)F)n2)nn1-c1ncccc1Cl [Example 371]	4.46	100	100			
